From US7910621B2, “Small molecule antagonists of XIAP family proteins” (The Regents of the University of Michigan, priority 2004, dated 2011)

Columns and labels:
[1] = biological target: XIAP BIR3 protein of human XIAP (residues 241-356) (Homo sapiens, UniProt P98170); settings: read-out: IC50 (displacement of SM7F from XIAP BIR3); 10 nM SM7F, 0.060 μM XIAP BIR3; three independent experiments in triplicate
[2] = system: caspase-9 in normal PrEC cells; experiment: Activation of caspase-9 assay, PrEC; assay type: cell-based, human; settings: compared to vehicle treated control cells
Description: (§1) FIGS. 7A and 7B show the activation of caspase-9 by embelin in PC-3 prostate cancer cells and its selectivity in normal prostate epithelial cells. 1×10^6 PC-3 or PrEC cells per well in 6-well culture plates were treated with embelin for 48 hours. An additional control was prepared by adding the pan-caspase inhibitor Z-VAD-FMK (2 uM final) 5 min before adding embelin, to inhibit caspase activation. The cells were collected and stained of active caspase-9 by CaspGLOW Red Active Caspase-9 Staining Kit, and analyzed by flow cytometry in PI channel.
1×10^6 PC-3 cells per well in 6-well culture plates, were treated with various concentrations of embelin, or the same amount of solvent DMSO as vehicle control, for up to 48 hr. An additional control was prepared by adding the pan-caspase inhibitor Z-VAD-FMK (1 uM final) 5 min before adding embelin, to inhibit caspase activation. The cells were collected for staining of active caspase-9 by CaspGLOW Red Active Caspase-9 Staining Kit (BioVision, Inc., Mountain View, Calif.) according to the manufacturer's instructions, with modification. […] The cells were resuspended in 0.3 ml Binding Buffer and analyzed by flow cytometry, using PI channel for active caspase-9 and FITC channel for apoptosis.

[3] = system: LNCap prostate cancer cells; experiment: WST-1 cell growth inhibition assay, LNCaP; assay type: cell-based; settings: Homo sapiens, 120 h, WST-1, five days
Description: (§2) FIG. 5 presents inhibition of cell growth by embelin in prostate cancer cells (PC-3 and LnCap) and its selectivity in normal human prostate epithelial cells (PrEC) and normal human fibroblast cell line, WI-38. 5000 cells per well in a 96-well cell culture plate were treated with various concentrations of embelin in triplicate. Five days later, the cell growth was measured by the WST-1 cell growth assay kit […] The cell growth results are expressed as the percent of control and calculated from the percent of absorbance of treated wells versus that of vehicle control.
(§3) Human prostate cancer cell lines (PC-3, LNCap, CL-1, DU-145), and normal human fibroblast cell line WI-38 were obtained from the American Type Culture Collection (ATCC), were grown and maintained in Dulbecco's modified Eagle's medium (DMEM) containing 10% FBS (Invitrogen Corporation). Normal human prostate epithelial cells (PrEC) were obtained from Clonetics (Cambrex Inc., MD) and maintained in the special medium provided by the company. […]
(§4) Cell growth was determined by the MTT-based assay using Cell Proliferation Reagent WST-1 (Roche) according to the manufacturer's instruction. […] Absorbance was measured with a plate reader at […] with correction at […]. The results are expressed as the percent of absorbance of treated wells versus that of vehicle control.

[4] = system: caspase-9 in PC-3 cells; experiment: Activation of caspase-9 assay, PC-3; assay type: cell-based, human; settings: for increase in activated caspase-9 as compared to vehicle treated control cells / PC-3 cells positively stained for activated caspase-9: 42 hrs; for PC-3 cells positively stained for activated caspase-9: vehicle control 3.1%
Description: as §1, with “An additional control was prepared by adding the pan-caspase inhibitor Z-VAD-FMK (2 uM final) 5 min before adding embelin, to inhibit caspase activation.” left out
1×10^6 PC-3 cells per well in 6-well culture plates, were treated with various concentrations of embelin, or the same amount of solvent DMSO as vehicle control, for up to 48 hr. […] The cells were collected for staining of active caspase-9 by CaspGLOW Red Active Caspase-9 Staining Kit (BioVision, Inc., Mountain View, Calif.) according to the manufacturer's instructions, with modification. Briefly, to each tube containing 1×10^6 treated or control cells in 0.3 ml complete culture medium was added 1 μl of Red-LEHD-FMK and incubated for 0.5 hr at 37° C. incubator with 5% CO2. For double staining with Annexin V-FITC, the cells were spun down and resuspended in 100 μl Binding Buffer containing 1× Annexin V-FITC from the Annexin-V-FLUOS Kit (Roche) and incubated at room temperature for 10 min. The cells were then washed two times with Wash Buffer from the Active Caspase-9 Staining Kit. The cells were resuspended in 0.3 ml Binding Buffer and analyzed by flow cytometry, using PI channel for active caspase-9 and FITC channel for apoptosis.
The active caspase-9 and Annexin V double stained cells were also observed under Zeiss Laser Scanning Confocal Microscope LSM 510 Meta, using the fluorescent filter sets for rhodamine (Red) and FITC (green) channels. Early apoptotic cells show green fluorescence on the cell membrane while caspase-9 positive cells show bright red staining in the cytoplasm. Photos were taken at original magnification of 630×.

[5] = system: normal human fibroblast cell line WI-38; experiment: WST-1 cell growth inhibition assay, WI-38; assay type: cell-based; settings: 120 h, WI-38, WST-1, five days
Description: as §2, §3, §4

[6] = system: normal human prostate epithelial cells (PrEC); experiment: WST-1 cell growth inhibition assay, PrEC; assay type: cell-based; settings: 120 h, WST-1, five days
Description: as §2, §3, §4

[7] = system: methylcholanthrene-induced fibrosarcoma; settings: methylcholanthrene-induced fibrosarcoma in albino rats (Chitra et al. 1994); cited from earlier work

Chain of XIAP BIR3 protein of human XIAP (residues 241-356) (P98170 241-356): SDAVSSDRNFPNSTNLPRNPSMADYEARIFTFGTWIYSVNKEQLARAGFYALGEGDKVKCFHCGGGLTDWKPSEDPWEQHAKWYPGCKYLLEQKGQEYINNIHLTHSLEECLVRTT

CCCCCCCCCCCC1=C(O)C(=O)C=C(O)C1=O [embelin]
IC50 [1]: 4.1 ± 1.1 µM
activation of caspase-9 in normal PrEC [2]: no significant effect
activation of caspase-9 in normal PrEC ([2]; listed as Embelin): minimal effects
IC50 [3]: 5.7 µM
increase in activated caspase-9 as compared to vehicle treated control cells ([4]; 20 μM): 10 fold
PC-3 cells positively stained for activated caspase-9 ([4]; 20 μM): 33.0%
increase in activated caspase-9 as compared to vehicle treated control cells ([4]; 40 μM): 20 fold
PC-3 cells positively stained for activated caspase-9 ([4]; 40 μM): 62.1%
activation of caspase-9 in PC-3 cells ([4]; in words): effectively activates caspase-9 in a dose-dependant manner
IC50 [5]: 19.3 µM
IC50 [6]: 20.1 µM
antitumor activity [7]: significant antitumor activity
